For data set [1], the target named is Activin receptor type-2B (Homo sapiens) (UniProt Q13705). Description: Inhibition of ACVR2B (unknown origin) assessed as remaining activity at 1 uM by Kinome scan method relative to control.
Data set [2] deals with Calcium/calmodulin-dependent protein kinase type 1 (Homo sapiens) (UniProt Q14012). Description: Inhibition of CAMK1 (unknown origin) assessed as remaining activity at 1 uM by Kinome scan method relative to control.
For data set [3], the target named is Cyclin-dependent kinase 5 (Homo sapiens) (UniProt Q00535). Description: Inhibition of CDK5 (unknown origin) assessed as remaining activity at 1 uM by Kinome scan method relative to control.
Cyclin-dependent kinase 5 (Homo sapiens), sequence (Q00535 whole entry, looked up): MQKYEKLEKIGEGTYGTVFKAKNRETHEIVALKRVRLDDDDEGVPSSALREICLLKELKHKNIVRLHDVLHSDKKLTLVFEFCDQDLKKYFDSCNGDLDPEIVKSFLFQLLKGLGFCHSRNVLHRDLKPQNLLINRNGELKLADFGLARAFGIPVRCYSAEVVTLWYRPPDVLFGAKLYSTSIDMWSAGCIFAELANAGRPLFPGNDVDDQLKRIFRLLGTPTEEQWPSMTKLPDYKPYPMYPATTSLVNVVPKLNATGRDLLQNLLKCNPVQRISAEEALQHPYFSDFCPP
Data set [4] has as its target Citron Rho-interacting kinase (Homo sapiens) (UniProt O14578). Description: Inhibition of CIT (unknown origin) assessed as remaining activity at 1 uM by Kinome scan method relative to control.
In data set [5] the target is Inhibitor of nuclear factor kappa-B kinase subunit epsilon (Homo sapiens) (UniProt Q14164). The data set is described as follows: Inhibition of IKK-epsilon (unknown origin) assessed as remaining activity at 1 uM by Kinome scan method relative to control.
Data set [6] deals with Tyrosine-protein kinase Lck (Homo sapiens) (UniProt P06239). The data set is described as follows: Inhibition of LCK (unknown origin) assessed as remaining activity at 1 uM by Kinome scan method relative to control.
Data set [7] has as its target Phosphatidylinositol 4-phosphate 5-kinase type-1 alpha (Homo sapiens) (UniProt Q99755). Description: Inhibition of PIP5K1A (unknown origin) assessed as remaining activity at 1 uM by Kinome scan method relative to control.
In data set [8] the target is Protein kinase C theta type (Homo sapiens) (UniProt Q04759). Description: Inhibition of PRKCQ (unknown origin) assessed as remaining activity at 1 uM by Kinome scan method relative to control.
The target of data set [9] is Rho-associated protein kinase 1 (Homo sapiens) (UniProt Q13464). Description: Inhibition of ROCK1 (unknown origin) assessed as remaining activity at 1 uM by Kinome scan method relative to control.
Data set [10] deals with Serine/threonine-protein kinase ULK3 (Homo sapiens) (UniProt Q6PHR2). The data set is described as follows: Inhibition of ULK3 (unknown origin) assessed as remaining activity at 1 uM by Kinome scan method relative to control.
Serine/threonine-protein kinase ULK3 (Homo sapiens), sequence (Q6PHR2 whole entry): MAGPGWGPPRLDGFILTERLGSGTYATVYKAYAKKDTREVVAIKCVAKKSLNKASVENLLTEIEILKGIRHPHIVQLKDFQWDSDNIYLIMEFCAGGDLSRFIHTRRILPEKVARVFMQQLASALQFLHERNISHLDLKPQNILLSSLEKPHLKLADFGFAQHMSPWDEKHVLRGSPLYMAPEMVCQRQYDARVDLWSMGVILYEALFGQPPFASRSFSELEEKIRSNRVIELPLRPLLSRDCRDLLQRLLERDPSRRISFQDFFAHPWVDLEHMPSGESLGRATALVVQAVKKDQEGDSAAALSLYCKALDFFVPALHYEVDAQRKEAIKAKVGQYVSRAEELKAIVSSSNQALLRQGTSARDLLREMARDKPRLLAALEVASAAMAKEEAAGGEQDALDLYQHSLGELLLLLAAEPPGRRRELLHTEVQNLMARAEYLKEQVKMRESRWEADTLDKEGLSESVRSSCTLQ
The test system of data set [11] is Serine/threonine-protein kinase B-raf (Homo sapiens), P15056 [V600E]. Description: Inhibition of human BRAF V600E mutant assessed as residual activity at 1 uM using MEK1-K97M as substrate in presence of 33P-ATP by ProQinase assay relative to control.
Serine/threonine-protein kinase B-raf (Homo sapiens), P15056 [V600E], sequence (P15056 whole entry V600E, canonical isoform): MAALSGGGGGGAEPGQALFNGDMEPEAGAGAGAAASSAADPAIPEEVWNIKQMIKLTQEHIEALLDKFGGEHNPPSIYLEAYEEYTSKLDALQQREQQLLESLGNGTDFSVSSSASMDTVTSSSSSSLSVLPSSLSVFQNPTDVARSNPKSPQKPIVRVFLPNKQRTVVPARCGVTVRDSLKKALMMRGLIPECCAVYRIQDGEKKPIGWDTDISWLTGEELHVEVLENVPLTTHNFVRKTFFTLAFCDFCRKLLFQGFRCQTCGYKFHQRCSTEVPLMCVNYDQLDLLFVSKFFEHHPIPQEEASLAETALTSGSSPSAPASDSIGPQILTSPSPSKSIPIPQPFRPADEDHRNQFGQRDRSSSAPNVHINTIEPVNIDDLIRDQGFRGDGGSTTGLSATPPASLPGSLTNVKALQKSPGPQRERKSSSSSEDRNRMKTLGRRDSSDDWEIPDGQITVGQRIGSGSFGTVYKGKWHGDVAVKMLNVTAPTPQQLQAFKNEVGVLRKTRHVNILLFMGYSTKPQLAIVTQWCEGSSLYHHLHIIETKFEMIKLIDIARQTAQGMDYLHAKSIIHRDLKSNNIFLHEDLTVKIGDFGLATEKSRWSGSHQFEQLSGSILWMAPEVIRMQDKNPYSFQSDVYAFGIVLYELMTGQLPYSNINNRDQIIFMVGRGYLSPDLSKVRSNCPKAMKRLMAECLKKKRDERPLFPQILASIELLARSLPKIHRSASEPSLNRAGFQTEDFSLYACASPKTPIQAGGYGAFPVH
Data set [12] deals with Casein kinase I isoform gamma-3 (Homo sapiens) (UniProt Q9Y6M4). The data set is described as follows: Inhibition of human CK1gamma3 assessed as residual activity at 1 uM using casein as substrate in presence of 33P-ATP by ProQinase assay relative to control.
Data set [13] has as its target Dual specificity protein kinase CLK4 (Homo sapiens) (UniProt Q9HAZ1). The data set is described as follows: Inhibition of human CLK4 assessed as residual activity at 1 uM using MBP as substrate in presence of 33P-ATP by ProQinase assay relative to control.
Data set [14] concerns Epidermal growth factor receptor (Homo sapiens), P00533 [UNDEFINED MUTATION]. The data set is described as follows: Inhibition of human EGFR d747-752/P753S mutant assessed as residual activity at 1 uM using PolyEY as substrate in presence of 33P-ATP by ProQinase assay relative to control.
For data set [15], the target named is Receptor tyrosine-protein kinase erbB-4 (Homo sapiens) (UniProt Q15303). The data set is described as follows: Inhibition of human ERBB4 assessed as residual activity at 1 uM using polyEy as substrate in presence of 33P-ATP by ProQinase assay relative to control.
Data set [16] concerns the target MAP kinase-interacting serine/threonine-protein kinase 1 (Homo sapiens) (UniProt Q9BUB5). Description: Inhibition of human MKNK1 assessed as residual activity at 1 uM using RB-S6P as substrate in presence of 33P-ATP by ProQinase assay relative to control.
The target of data set [17] is T1, Muscle, skeletal receptor tyrosine-protein kinase (Homo sapiens) (UniProt O15146).
T1 sequence (whole entry): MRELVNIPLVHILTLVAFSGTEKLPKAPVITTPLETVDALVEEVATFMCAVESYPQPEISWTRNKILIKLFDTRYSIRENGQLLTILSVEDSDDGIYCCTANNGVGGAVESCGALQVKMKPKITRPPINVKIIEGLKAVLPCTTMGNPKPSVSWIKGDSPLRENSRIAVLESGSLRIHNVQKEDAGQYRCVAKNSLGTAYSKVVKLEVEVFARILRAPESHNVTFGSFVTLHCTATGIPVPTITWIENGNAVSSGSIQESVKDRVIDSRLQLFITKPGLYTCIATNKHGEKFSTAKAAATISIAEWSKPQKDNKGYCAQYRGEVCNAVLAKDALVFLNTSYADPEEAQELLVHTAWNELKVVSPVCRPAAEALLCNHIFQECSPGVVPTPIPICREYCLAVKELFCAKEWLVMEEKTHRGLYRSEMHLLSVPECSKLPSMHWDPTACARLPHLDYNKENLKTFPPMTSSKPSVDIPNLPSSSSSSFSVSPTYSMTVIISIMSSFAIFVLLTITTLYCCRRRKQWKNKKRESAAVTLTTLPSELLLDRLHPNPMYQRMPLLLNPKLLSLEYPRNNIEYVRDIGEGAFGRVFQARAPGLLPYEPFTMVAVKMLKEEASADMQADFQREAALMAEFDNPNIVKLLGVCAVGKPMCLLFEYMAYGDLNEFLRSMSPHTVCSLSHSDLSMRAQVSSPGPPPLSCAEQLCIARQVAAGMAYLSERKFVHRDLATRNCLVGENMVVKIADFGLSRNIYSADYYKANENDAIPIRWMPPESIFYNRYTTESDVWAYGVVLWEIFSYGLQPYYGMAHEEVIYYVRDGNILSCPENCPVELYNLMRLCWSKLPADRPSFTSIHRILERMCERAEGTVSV
The data set is described as follows: Inhibition of human MUSK assessed as residual activity at 1 uM using Poly(Ala,Glu,Lys,Tyr)6:2:5:1 as substrate in presence of 33P-ATP by ProQinase assay relative to control.

Data set [18] concerns the target Protein kinase C epsilon type (Homo sapiens) (UniProt Q02156). The data set is described as follows: Inhibition of human PKCepsilon assessed as residual activity at 1 uM using 3xChocktide-PKC(19-31) as substrate in presence of 33P-ATP by ProQinase assay relative to control.
The target in data set [19] is Protein kinase C eta type (Homo sapiens) (UniProt P24723). The data set is described as follows: Inhibition of human PKCeta assessed as residual activity at 1 uM using histon H2B as substrate in presence of 33P-ATP by ProQinase assay relative to control.
The nature of data set [20]: Anti-inflammatory activity against human derived high respond PBMC cells assessed as inhibition in stimulated IL-6 cytokine release incubated for 2 hrs in the presence of LPS/SEB/aCD28 by Luminex based sandwich immunoassay. It is filed as functional, cell-based.
Data set [21] in a line: Anti-inflammatory activity against human derived high respond PBMC cells assessed as inhibition in stimulated TARC chemokine release incubated for 2 hrs in the presence of LPS/SEB/aCD28 by Luminex based sandwich immunoassay. It is filed as functional, cell-based.
The target in the next data set is CYP2C19 (Homo sapiens, UniProt P33261). Description: Inhibition of CYP2C19 (unknown origin) at 10 uM relative to control. It is filed as ADME.

What is called IC50 is the concentration that inhibits the measured activity by half. By inhibition is commonly meant the relative decrease from the control value, in per cent. Low values mean little suppression, high ones strong suppression.

MAP kinase-interacting serine/threonine-protein kinase 1 (Homo sapiens), sequence (Q9BUB5 whole entry, looked up): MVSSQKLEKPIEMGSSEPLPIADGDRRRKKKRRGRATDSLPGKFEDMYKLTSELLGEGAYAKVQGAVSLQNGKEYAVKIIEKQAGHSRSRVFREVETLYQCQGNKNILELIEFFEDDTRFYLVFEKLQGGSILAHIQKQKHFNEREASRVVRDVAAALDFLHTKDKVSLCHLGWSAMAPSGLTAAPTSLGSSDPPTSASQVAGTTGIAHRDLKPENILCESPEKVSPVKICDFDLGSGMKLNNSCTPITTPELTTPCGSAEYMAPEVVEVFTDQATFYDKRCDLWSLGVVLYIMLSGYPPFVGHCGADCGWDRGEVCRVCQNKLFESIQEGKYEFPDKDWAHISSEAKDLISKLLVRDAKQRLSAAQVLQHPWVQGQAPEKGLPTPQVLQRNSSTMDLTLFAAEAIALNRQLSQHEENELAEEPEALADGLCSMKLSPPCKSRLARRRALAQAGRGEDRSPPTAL
Activin receptor type-2B (Homo sapiens), sequence (Q13705 whole entry): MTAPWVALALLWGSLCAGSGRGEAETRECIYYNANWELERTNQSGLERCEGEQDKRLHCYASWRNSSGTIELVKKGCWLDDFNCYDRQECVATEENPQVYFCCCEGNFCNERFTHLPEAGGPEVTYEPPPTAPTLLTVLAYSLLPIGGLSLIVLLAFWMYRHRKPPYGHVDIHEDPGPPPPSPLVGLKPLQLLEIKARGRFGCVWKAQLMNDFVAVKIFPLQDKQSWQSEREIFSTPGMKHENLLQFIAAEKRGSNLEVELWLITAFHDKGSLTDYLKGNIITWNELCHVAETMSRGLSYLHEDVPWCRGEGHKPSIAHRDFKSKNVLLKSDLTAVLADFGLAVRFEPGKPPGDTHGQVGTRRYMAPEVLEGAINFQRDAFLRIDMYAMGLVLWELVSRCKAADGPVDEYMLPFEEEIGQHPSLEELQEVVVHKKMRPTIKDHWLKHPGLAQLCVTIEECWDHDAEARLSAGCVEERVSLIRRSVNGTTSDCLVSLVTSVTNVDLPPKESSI
Citron Rho-interacting kinase (Homo sapiens), sequence (O14578 whole entry): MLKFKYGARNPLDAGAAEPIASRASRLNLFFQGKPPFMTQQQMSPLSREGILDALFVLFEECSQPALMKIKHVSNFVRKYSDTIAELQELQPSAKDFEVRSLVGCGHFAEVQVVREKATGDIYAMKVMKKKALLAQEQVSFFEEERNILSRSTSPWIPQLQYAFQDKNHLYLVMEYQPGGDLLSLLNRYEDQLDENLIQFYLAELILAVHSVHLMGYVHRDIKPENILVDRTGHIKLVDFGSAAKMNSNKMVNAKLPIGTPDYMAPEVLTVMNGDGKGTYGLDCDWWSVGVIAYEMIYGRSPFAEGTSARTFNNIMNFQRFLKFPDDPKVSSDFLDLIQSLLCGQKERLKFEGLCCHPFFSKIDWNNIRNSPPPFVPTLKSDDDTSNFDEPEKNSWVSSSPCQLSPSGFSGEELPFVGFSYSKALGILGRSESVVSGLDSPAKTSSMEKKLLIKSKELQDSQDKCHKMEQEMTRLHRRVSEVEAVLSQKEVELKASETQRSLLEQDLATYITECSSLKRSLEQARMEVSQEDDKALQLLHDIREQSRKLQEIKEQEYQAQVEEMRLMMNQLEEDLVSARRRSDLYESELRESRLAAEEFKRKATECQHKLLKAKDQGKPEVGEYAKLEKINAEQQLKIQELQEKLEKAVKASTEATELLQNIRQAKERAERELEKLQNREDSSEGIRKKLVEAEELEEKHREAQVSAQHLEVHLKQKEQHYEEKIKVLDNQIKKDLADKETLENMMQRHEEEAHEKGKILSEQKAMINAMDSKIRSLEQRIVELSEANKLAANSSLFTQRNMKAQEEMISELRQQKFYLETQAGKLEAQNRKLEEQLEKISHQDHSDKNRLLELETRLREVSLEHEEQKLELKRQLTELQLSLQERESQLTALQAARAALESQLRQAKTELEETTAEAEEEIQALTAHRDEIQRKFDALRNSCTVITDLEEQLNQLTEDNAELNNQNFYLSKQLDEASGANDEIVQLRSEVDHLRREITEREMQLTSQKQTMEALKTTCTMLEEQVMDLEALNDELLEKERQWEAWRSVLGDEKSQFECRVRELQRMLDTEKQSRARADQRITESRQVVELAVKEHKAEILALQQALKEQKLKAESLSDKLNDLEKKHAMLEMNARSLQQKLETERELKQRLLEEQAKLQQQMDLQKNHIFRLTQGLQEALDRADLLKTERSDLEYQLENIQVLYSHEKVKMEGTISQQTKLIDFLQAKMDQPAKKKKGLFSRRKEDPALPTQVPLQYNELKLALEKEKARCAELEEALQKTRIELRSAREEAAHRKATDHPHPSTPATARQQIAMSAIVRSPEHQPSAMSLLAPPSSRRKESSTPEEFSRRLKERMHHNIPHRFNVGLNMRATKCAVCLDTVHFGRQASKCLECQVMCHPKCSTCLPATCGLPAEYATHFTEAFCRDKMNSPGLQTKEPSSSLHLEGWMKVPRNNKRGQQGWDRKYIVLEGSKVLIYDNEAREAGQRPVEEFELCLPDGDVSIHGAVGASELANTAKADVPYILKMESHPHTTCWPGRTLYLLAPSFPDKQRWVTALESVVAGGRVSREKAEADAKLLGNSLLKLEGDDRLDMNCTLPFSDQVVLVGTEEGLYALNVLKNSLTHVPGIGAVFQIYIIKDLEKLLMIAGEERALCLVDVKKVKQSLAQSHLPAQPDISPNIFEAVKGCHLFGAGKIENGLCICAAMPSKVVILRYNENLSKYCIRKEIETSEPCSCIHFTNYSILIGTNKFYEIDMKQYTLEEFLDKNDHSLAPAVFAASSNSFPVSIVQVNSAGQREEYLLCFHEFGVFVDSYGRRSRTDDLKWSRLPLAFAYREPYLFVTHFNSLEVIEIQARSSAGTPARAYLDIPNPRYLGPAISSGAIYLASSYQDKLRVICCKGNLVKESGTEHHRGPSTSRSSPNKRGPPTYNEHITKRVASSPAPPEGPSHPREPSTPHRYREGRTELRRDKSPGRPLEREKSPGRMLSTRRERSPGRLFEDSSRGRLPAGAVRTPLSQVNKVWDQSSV
Dual specificity protein kinase CLK4 (Homo sapiens), sequence (Q9HAZ1 whole entry, looked up): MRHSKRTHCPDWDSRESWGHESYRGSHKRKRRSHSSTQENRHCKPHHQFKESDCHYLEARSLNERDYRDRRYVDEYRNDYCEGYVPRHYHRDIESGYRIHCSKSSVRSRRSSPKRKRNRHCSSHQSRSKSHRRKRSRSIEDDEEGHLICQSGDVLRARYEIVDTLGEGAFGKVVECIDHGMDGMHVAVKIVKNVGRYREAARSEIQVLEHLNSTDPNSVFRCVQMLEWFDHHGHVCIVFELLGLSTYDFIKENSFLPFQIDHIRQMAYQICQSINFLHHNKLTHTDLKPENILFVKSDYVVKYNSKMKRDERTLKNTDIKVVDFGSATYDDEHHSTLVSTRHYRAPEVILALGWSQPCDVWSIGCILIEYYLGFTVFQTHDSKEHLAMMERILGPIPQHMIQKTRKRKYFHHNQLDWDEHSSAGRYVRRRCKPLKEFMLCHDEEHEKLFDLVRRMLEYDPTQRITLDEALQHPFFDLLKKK

As to `O=C1c2ccc(Nc3ccc(F)cc3F)cc2CCc2ccc(OC[C@H](O)CO)cc21` [Skepinone-L], the Activity was 83% in data set [1]; 100% in [2]; 100% in data set [3]; 92% in data set [4]; 100% in data set [5]; 100% in [6]. Further, the Activity was determined as 100% in [7]; 83% in data set [8]; 100% in data set [9]; 100% in data set [10]; 135% in [11]; 95% in [12]. Also, the Activity stood at 100% in data set [13]; 93% in data set [14]; 106% in [15]; 69% in data set [16]; 106% in data set [17]; 99% in data set [18]. In addition, the Activity in data set [19] is 97%. Besides, the half-inhibitory concentration (IC50) is 0.65 µM in [20] and “Not Active” in data set [21]. At CYP2C19, the inhibition at 10 µM is 42%.

Values taken from ChEMBL document CHEMBL5696441 (Nat Chem Biol, 2011).
